According to patent US20080045609A1, “METHODS AND THERAPEUTICS TO FACILITATE LIVER REPAIR” (priority 2006, published 2008):

Legend:
[1] = test system: NASH; assay: clinical trial in patients with moderately severe NASH; format: in vivo, human; conditions: subcutaneous delivery, monotherapy
Description: The dosage and delivery mechanism for relaxin H2 is subcutaneous delivery of the molecule based on the earlier reports for the scleroderma trial. […] The dosage of relaxin H2 in the present trial is the most efficacious level that was used in the earlier reported scleroderma trial, a subcutaneous relaxin infusion rate of 25 μg/kg/day, with the mode of delivery via continuous subcutaneous delivery (e.g., through implantation of an osmotic pump). The simultaneous dosage of follistatin will be 50 μg/kg/day through subcutaneous delivery.
A formulation comprised of rH2 relaxin and recombinant human follistatin 315 is used to improve prognosis and decrease on-going damage caused from on-going hepatic damage in patients diagnosed with moderately severe NASH. The measured end points are indicative of a decrease of reduction of area of damage in the liver and increased liver enzyme function. […]
rH2 relaxin and follistatin administration are studied in a small patient population of NASH and an improvement in liver enzyme levels and liver function is measured as a primary end point. A decrease in on-going damage as determined by imaging techniques is also measured. […] In addition, elements such as diet and exercise are carefully monitored in the trial populations as these may impact on the improvement of the underlying metabolic disorder and potentially skew the results.

[2] = test system: rat model of hypertension; conditions: cited from earlier work
[3] = test system: hepatic stellate cells (HSCs); conditions: rat CCl4 model of liver damage; cited from earlier work
[4] = human, in vivo; cited from earlier work
[5] = test system: CCl4-exposed rats; conditions: cited from earlier work
[6] = test system: HSC; conditions: cited from earlier work
[7] = test system: liver; conditions: cited from earlier work
[8] = test system: tumor cell; conditions: in vitro or in vivo studies; cited from earlier work
[9] = test system: lung fibroblasts; conditions: in vitro; cited from earlier work
[10] = test system: gene for TGF-β1; conditions: bleomycin-induced model of lung fibrosis, exogenous interferon-γ; cited from earlier work
[11] = test system: progressive pulmonary fibrosis; conditions: patients with idiopathic pulmonary fibrosis, scleroderma or sarcoidosis resistant to three months of high-dose glucocorticoids; cited from earlier work

## relaxin
[1]
  improvement versus vehicle (liver enzyme levels, liver function): significant improvement over those treated with vehicle
[2]
  fibrosis associated with organ damage: reversing cardiac and renal fibrosis
[3]
  collagen deposition by hepatic stellate cells: inhibit collagen deposition by hepatic stellate cells
[4]
  adverse events: few adverse events

## follistatin
[1]
  improvement versus vehicle (liver enzyme levels, liver function): significant improvement over those treated with vehicle
[5]; CCl4-exposed rats treated with the peptide
  reduction in fibrosis: 32%
[5]; CCl4-exposed rats, during treatment, effect maximal at week 4
  decrease of hepatocyte apoptosis: 87%
[6]
  TGF-β-induced secretion of collagen: inhibit TGF-β-induced secretion of collagen from HSC
[7]; after hepatic resection
  liver weight: significantly increases liver weight
[7]; following partial hepatectomy
  cell replication and liver size: actively promote cell replication and increase liver size
[8]
  tumor cell growth: did not accelerate tumor cell growth

## interferon-γ
[9]
  proliferation of lung fibroblasts: inhibits the proliferation of lung fibroblasts in a dose-dependent manner
  synthesis of protein in fibroblasts: reduces the synthesis of protein in fibroblasts
[10]
  transcription of the gene for TGF-β1: down-regulated

## interferon γ-1b
[11]
  clinical efficacy in progressive pulmonary fibrosis: effective
